“And” between values parts separate entries of the source, which are not always exact repeats. Equal values may be shown once.
What was measured:
[1] = serum NEFA, insulin and corticosterone in rats on a moderate fat diet given potassium hydroxycitrate for 60 days; assay type: in vivo; details: student's T test
From the text: Therefore, animal tests were scrutinized to determine if variations in serum levels of non-esterified fatty acids (NEFA), insulin and corticosterone could explain the novel findings. Ten-week old male rats were placed on a moderate fat diet (30% of calories, which is a high-fat diet for rats) for 60 days. These rats were fed water or potassium hydroxycitrate (0.33 mmols/kg) twice daily by gastric intubation, but were otherwise provided with food and water ad libitum. Five animals were used as controls and two different formulas of potassium hydroxycitrate were provided to five animals each. The differences between control (5 data points) and active (10 data points) were then analyzed according to the student's T test. […] Both of these factors could play a role in the clinical findings of lowered blood pressure in hypertensive individuals. Elevated insulin levels are known to be associated with hypertension. Glucocorticoids, similarly, are associated with hypertension through a variety of mechanisms, including sodium retention.

[2] = treated rats, diets mostly of glucose (e.g. 70% glucose); Sullivan and Triscari 1976; cited from earlier work
[3] = pilot open clinical weight loss trial with a pouch delivery form of potassium (−)-hydroxycitrate in extremely obese patients (blood pressure, weight, tolerability); assay type: in vivo, human; parameters: Starting Blood Pressure: unit not given here
From the text: Blood pressure data was acquired from a multi-week pilot open clinical weight loss trial with extremely obese patients which was undertaken to gauge the effects of a pouch delivery form of a potassium salt of (−)-hydroxycitrate under the normal circumstances faced in clinical practice with this patient population. Sixteen patients were enrolled, three of whom were diabetics on medications or insulin. Several others were suspected of suffering from insulin resistance. The patients ingested 3–4 grams of HCA per day in two divided doses. Aside from being informed that they must eat a carbohydrate-containing meal within one hour of taking the HCA and that they should avoid eating late in the day, they were not instructed to follow any special diet or exercise plan outside their normal habits and no caloric restriction was imposed. This particular form of potassium (−)-hydroxycitrate delivery typically was mixed into water or juice and consumed at mid-morning and mid-afternoon. The delivery was a water-soluble immediate release form. […] A number of patients continued on the program for 6 weeks. […] Several other patients experienced good appetite suppression, yet also complained of episodic tiredness at the beginning of the program, a sign of low blood sugar. Two patients subsequently were placed on phentermine. […] The average weight loss over the 3 week period for these 14 patients was approximately 3.1 pounds per person per week. The clinical decision was made that potassium (−)-hydroxycitrate in an immediate release format can exercise a strong hypoglycemic effect in diabetics and that it appears to influence blood sugar levels in protodiabetics, as well. At therapeutically effective dosages, HCA probably should be used with diabetic populations only under a physician's care.
Along with the hypoglycemic effect of the potassium hydroxycitrate, a quite surprising finding was that blood pressure levels in eight patients began to normalize rapidly with this treatment. Elevated blood pressure is common with obese and insulin-resistant patients, and therefore it was unremarkable that in this patient population (ages ranging roughly 30 to 60) that almost one half suffered from hypertension. Following are the readings for the eight hypertensive patients. Many of these patients had been advised to lower salt intake and to increase potassium and magnesium intake. […]

## O=C(O)CC(O)(C(=O)O)C(O)C(=O)O (single isomer, unassigned; (-)) [HCA, (−)-Hydroxycitric acid]
[1]; pooled active (10) vs control (5), one-tailed P 0.0013, two-tailed P 0.0026
  corticosterone levels, HCA groups versus control: very significantly lower
[1]; pooled active (10) vs control (5), one-tailed P 0.0306, two-tailed P 0.0612
  insulin levels, HCA groups versus control: significantly lower
[1]; pooled active (10 data points) vs control (5)
  NEFA, HCA groups versus control: no significant difference
[2]
  plasma levels of glucose, insulin, or free fatty acids relative to controls: no significant differences

## O=C([O-])CC(O)(C(=O)[O-])C(O)C(=O)[O-].[K+].[K+].[K+] (stereo not drawn) [potassium hydroxycitrate, potassium (−)-hydroxycitrate]
[3]; as little as 3 grams of HCA per day in divided doses (5 grams of the salt), manifests over one to several weeks
  hypotensive effect: significant hypotensive effect
[3]; baseline reading of each of the eight hypertensive, extremely obese patients before treatment
  Starting Blood Pressure: 150/88 and 178/100 and 130/98 and 150/98 and 140/78 and 180/88 and 120/80 and 170/100
[3]; one patient who followed the program for 10 weeks, 3–4 grams of HCA per day
  weight loss of one patient: 32 pounds
[3]; over the 3 week period, 14 patients, 3–4 grams of HCA per day, no caloric restriction
  average weight loss: approximately 3.1 pounds per person per week
[3]; pre-commercial pouch preparation, patients complained of inconvenience and poor taste
  tolerability: no other issues of tolerability
[3]; two of the diagnosed diabetics on medications or insulin, 3–4 grams of HCA per day, immediate release
  hypoglycemic reactions: severe hypoglycemic reactions
